These results are taken from patent publication US20050271588A1, “Liposome targeting of matrix metalloproteinase inhibitors” (priority 2001, published 2005).

Positions of bridges follow the written chain, without caps; N, C: chain ends. Residues, ends and D or L forms follow the SMILES beside them.

Series [1] relates to endothelial and tumor cell migration. Particulars: cited from earlier work.
A short description of series [2]: Trp fluorescence emission anisotropy with liposomes. Format: physicochemical. The conditions noted are these: 37° C. On the procedure:
Fluorescence polarization of the Trp residue of CTT as a function of increasing concentration of liposomes was measured using rotating polarizers in the excitation and emission beams, with a bandpass of 10 nm. The results are expressed as emission anisotropy (Lakowicz, 1999) calculated as follows: r=(I∥−I⊥)/(I∥+2I⊥). In this equation I⊥ and I∥ represent the emission intensity perpendicular and parallel, respectively, to the excitation polarizer.

In the next series the target is T1, MMP-2 (Homo sapiens, UniProt P08253).
T1 construct: purchased Boehringer Mannheim GmbH (Germany)
T1 sequence (P08253 110-660): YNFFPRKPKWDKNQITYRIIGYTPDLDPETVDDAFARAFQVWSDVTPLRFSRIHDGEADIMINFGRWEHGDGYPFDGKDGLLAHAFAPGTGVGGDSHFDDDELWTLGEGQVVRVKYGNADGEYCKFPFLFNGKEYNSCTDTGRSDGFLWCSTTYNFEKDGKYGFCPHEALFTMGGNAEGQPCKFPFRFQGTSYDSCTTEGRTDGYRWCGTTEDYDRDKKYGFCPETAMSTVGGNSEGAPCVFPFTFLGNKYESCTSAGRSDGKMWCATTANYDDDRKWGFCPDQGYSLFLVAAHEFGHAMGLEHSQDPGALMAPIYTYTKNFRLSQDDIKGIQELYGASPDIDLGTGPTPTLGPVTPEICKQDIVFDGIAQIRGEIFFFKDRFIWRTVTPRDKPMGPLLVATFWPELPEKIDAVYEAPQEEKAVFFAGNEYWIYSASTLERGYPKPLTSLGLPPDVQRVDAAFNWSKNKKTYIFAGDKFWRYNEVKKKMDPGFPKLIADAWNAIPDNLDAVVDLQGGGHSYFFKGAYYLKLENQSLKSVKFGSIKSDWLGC
As to the kind of experiment: Casein zymography, inhibition of MMP-2. Format: biochemical. The conditions noted are these: 85 μM peptide. On the procedure:
Assay for gelatinases. Inhibition of MMP-9 and MMP-2 by the different synthetic peptides was measured using casein zymography (Halinen et al., 1996). MMP-9 was purified as described (Sorsa et al., 1997). Subsequently, MMP-2 (2.5 μg) or MMP-9 (2.5 μg) was run on a 10% SDS-PAGE containing two mg/ml casein. The gel was first washed in Triton X-100 containing buffer to remove SDS, and it was cut into five slices which were immersed into peptide (CTT, CLP, CWL or STT) containing solutions (85 μM). After incubation for 48 hrs at 37° C., the gels were stained with Coomassie blue, scanned, and the digested areas quantitated using image analysis (Global Lab Image 3.2, Data Translation Inc. and Acuity Imaging Inc., Marlboro, Mass., USA).

Series [3] can be described thus: Assay for lipid mixing (liposome fusion, NBD-PE/DPPRho). Format: physicochemical. The conditions noted are these: within 15 min. On the procedure: The extent of exposure of Trp to the aqueous phase was studied using I— as a collisional quencher (Lakowicz, 1999). The extent of quenching was calculated by using the equation: F0/F=1+k[Q]=1+kqτ0[Q] where F0 and F are Trp fluorescence intensities at 345 nm in the absence and presence of the quencher, Q, τ0 is Trp fluorescence lifetime in the absence of the quencher, k is the Stern-Volmer constant (obtained from the slope of the linear fit of the data). Fluorescence of Trp in CTT (5 μM) and its quenching were measured in the absence and presence of POPC/POPE (80:20, mol/mol) LUVs (final lipid concentration of 0.5 mM). The results were corrected for background caused by PBS and liposomes. Assay for lipid mixing. The ability of the CTT, CLP, STT, and CWL peptides to induce liposome fusion was assessed by measuring lipid mixing, as described earlier (Struck et al., 1981). In brief, NBD-PE (X=0.01) and DPPRho (X=0.01) were incorporated into liposomes (POPC/POPE, 78/20, mol/mol). Due to the spectral overlap of NBD-PE (donor) emission and DPPRho (acceptor) absorption resonance energy transfer between these dyes is highly efficient. As liposomes containing NBD-PE and DPPRho are mixed with non-labeled liposomes, fusion is observed as an increase in the emission intensity of NBD-PE due to the dilution of probes. Excitation and emission wavelengths for NBD-PE at 430 nm and 530 nm were used. All fluorescence measurements were done at 37° C.

The next series deals with U937 leukemia cells. The experiment in a line: Association of DPPRho-labelled liposomes with cells. Format: cell-based. The conditions noted are these: U937, 5 min. How it is done:
Assays for liposome uptake by cells. In order to study the effects of the different peptides on the cellular uptake of liposomes, rhodamine-labelled phospholipid analog (DPPRho) was incorporated into liposomes as a tracer, to yield a composition POPC/POPE/DPPRho (80:19:1, mol/mol). The indicated peptides were mixed with LUVs and subsequently added to cells cultured in microtiter well plates. After an incubation for 5 min at 38° C. liposomes not bound to the cells were removed by rinsing the cells three times with cold PBS. The relative amount of DPPRho associated with the cells was determined using Tecan Spectrafluor Plus microplate reader (Tecan, Hombrechtigon, Switzerland) with excitation at 535 nm and emission at 595 nm.

A further series has as its system MMP-2 and MMP-9. Particulars: cited from earlier work.

For the compound `CC(C)C[C@@H]1NC(=O)[C@H]([C@@H](C)O)NC(=O)[C@H](Cc2ccccc2)NC(=O)CNC(=O)[C@H](Cc2c[nH]c3ccccc23)NC(=O)[C@H](Cc2c[nH]cn2)NC(=O)[C@H]([C@@H](C)O)NC(=O)[C@H]([C@@H](C)O)NC(=O)[C@@H](N)CSSC[C@@H](C(=O)O)NC1=O` [CTT] (H-CTTHWGFTLC-OH; disulfide 1-10; N-terminus and C-terminus assumed), in series [1], the “Endothelial and tumor cell migration in vitro” value is “inhibited”. The “Trp emission anisotropy r” value is 0.349 in series [2] (230 μM phospholipid, CTT 5 μM) and 0.065 in series [2] (absence of liposomes, CTT 5 μM in PBS). On MMP-2, the “Inhibition of MMP-2 activity” value is “approx. 70%”. In addition, the “Lipid mixing / vesicle fusion (NBD-PE emission)” value in series [3] was “lack of lipid mixing”. Besides, in the series with U937 leukemia cells, the “Increase of DPPRho marker bound to cells with peptide vs without” value is recorded as “approx. 3.7 fold”. Further, the “Selective inhibition of MMP family members” value in the series on MMP-2 and MMP-9 is “selectively inhibit the activity of MMP-2 and MMP-9”.
